Reference: ChEMBL document CHEMBL3352133, “Antimalarial chemotherapy: orally curative artemisinin-derived trioxane dimer esters” (Bioorg Med Chem Lett, 2015)

Assays:
[1] = test system: Plasmodium berghei; assay: Antimalarial activity Plasmodium berghei ANKA infected in C57BL/6J mouse assessed as mouse survival at 6 mg/kg, po administered as single dose combined with 18 mg/kg mefloquine hydrochloride; type: functional
[2] = test system: Plasmodium berghei; assay: Antimalarial activity Plasmodium berghei ANKA infected in C57BL/6J mouse assessed as suppression of parasitemia at 6 mg/kg, po administered as single dose combined with 18 mg/kg mefloquine hydrochloride measured on day 3 after innfection; type: functional
[3] = Lipophilicity, logP of the compound; type: physicochemical; details: octanol/water
[4] = test system: Plasmodium; assay: Antimalarial activity Plasmodium; type: functional
[5] = Stability in pH 2 in acetonitrile and water at 37 degC; type: physicochemical; details: acetonitrile and water at pH 2, pH 2; read-out: Stability (converted)

C[C@H]1[C@@H](CC(CO)C[C@H]2O[C@@H]3O[C@@]4(C)CC[C@H]5[C@H](C)CC[C@@H]([C@H]2C)[C@@]35OO4)O[C@@H]2O[C@@]3(C)CC[C@H]4[C@H](C)CC[C@@H]1[C@@]24OO3 (stereo not given in full)
Survival [1]: 26 days | Activity [2]: >99.9%

C[C@H]1[C@@H](CC(COC(=O)c2ccncc2)C[C@H]2O[C@@H]3O[C@@]4(C)CC[C@H]5[C@H](C)CC[C@@H]([C@H]2C)[C@@]35OO4)O[C@@H]2O[C@@]3(C)CC[C@H]4[C@H](C)CC[C@@H]1[C@@]24OO3
logP ([3]; read-out: logP): 7.8 | IC50 [4]: 1.7 nM | Survival [1]: 24.3 days | Activity [2]: >99.9%

C[C@H]1[C@@H](CC(COC(=O)c2ccnc(Cl)c2Cl)C[C@H]2O[C@@H]3O[C@@]4(C)CC[C@H]5[C@H](C)CC[C@@H]([C@H]2C)[C@@]35OO4)O[C@@H]2O[C@@]3(C)CC[C@H]4[C@H](C)CC[C@@H]1[C@@]24OO3
logP [3]: 9.2 | Survival [1]: 26 days | Activity [2]: >99.9%

C[C@H]1[C@@H](CC(COC(=O)c2cc(Cl)nc(Cl)c2)C[C@H]2O[C@@H]3O[C@@]4(C)CC[C@H]5[C@H](C)CC[C@@H]([C@H]2C)[C@@]35OO4)O[C@@H]2O[C@@]3(C)CC[C@H]4[C@H](C)CC[C@@H]1[C@@]24OO3
logP [3]: 9.5 | Survival [1]: 25.8 days | Activity [2]: >99.9%

Cc1cc(C(=O)OCC(C[C@H]2O[C@@H]3O[C@@]4(C)CC[C@H]5[C@H](C)CC[C@@H]([C@H]2C)[C@@]35OO4)C[C@H]2O[C@@H]3O[C@@]4(C)CC[C@H]5[C@H](C)CC[C@@H]([C@H]2C)[C@@]35OO4)cc(Cl)n1
logP [3]: 9.5 | Survival [1]: 28.5 days | Activity [2]: >99.9%

Cc1cc(C(=O)OCC(C[C@H]2O[C@@H]3O[C@@]4(C)CC[C@H]5[C@H](C)CC[C@@H]([C@H]2C)[C@@]35OO4)C[C@H]2O[C@@H]3O[C@@]4(C)CC[C@H]5[C@H](C)CC[C@@H]([C@H]2C)[C@@]35OO4)cc(C)n1
logP ([3]; read-out: logP): 8.1 | Survival [1]: 25.8 days | Activity [2]: >99.9%

C[C@H]1[C@@H](CC(COC(=O)c2cc(F)nc(F)c2)C[C@H]2O[C@@H]3O[C@@]4(C)CC[C@H]5[C@H](C)CC[C@@H]([C@H]2C)[C@@]35OO4)O[C@@H]2O[C@@]3(C)CC[C@H]4[C@H](C)CC[C@@H]1[C@@]24OO3
logP ([3]; read-out: logP): 8.9 | Survival [1]: 23.5 days | Activity [2]: >99.9%

C[C@H]1[C@@H](CC(COC(=O)c2cc(F)cc(F)c2)C[C@H]2O[C@@H]3O[C@@]4(C)CC[C@H]5[C@H](C)CC[C@@H]([C@H]2C)[C@@]35OO4)O[C@@H]2O[C@@]3(C)CC[C@H]4[C@H](C)CC[C@@H]1[C@@]24OO3
logP [3]: 9.3 | Survival [1]: 29 days | Activity [2]: >99.9%

C[C@H]1[C@@H](CC(COC(=O)c2cc(Cl)cc(Cl)c2)C[C@H]2O[C@@H]3O[C@@]4(C)CC[C@H]5[C@H](C)CC[C@@H]([C@H]2C)[C@@]35OO4)O[C@@H]2O[C@@]3(C)CC[C@H]4[C@H](C)CC[C@@H]1[C@@]24OO3
logP [3]: 10.2 | Survival [1]: 30 days | Activity [2]: >99.9% | half-life [5]: 96 h

C[C@H]1[C@@H](CC(COC(=O)c2ccc(Cl)nc2Cl)C[C@H]2O[C@@H]3O[C@@]4(C)CC[C@H]5[C@H](C)CC[C@@H]([C@H]2C)[C@@]35OO4)O[C@@H]2O[C@@]3(C)CC[C@H]4[C@H](C)CC[C@@H]1[C@@]24OO3
logP [3]: 9.5 | Survival [1]: 30 days | Activity [2]: >99.9% | half-life [5]: 96 h

CO[C@H]1O[C@@H]2O[C@@]3(C)CC[C@H]4[C@H](C)CC[C@@H]([C@H]1C)[C@@]24OO3 [ARTEMETHER]
Survival [1]: 20.8 days | Activity [2]: >99.9%

C[C@@H]1CC[C@H]2[C@@H](C)C(=O)O[C@@H]3O[C@@]4(C)CC[C@@H]1[C@]32OO4 [ARTEMISININ]
IC50 [4]: 9 nM
